# Laboratory results taken from ChEMBL document CHEMBL5257140, “Novel Imidazotriazine Derivatives as IL-17 Modulators for Treating Inflammatory and Autoimmune Disorders” (ACS Med Chem Lett, 2023).
# Test: Inhibition of IL-6 release in IL-17A/TNFalpha-stimulated HDF cells preincubated with IL-17A and TNFalpha for 5 hrs followed by […] to assay plate and measured after 18 to 20 hrs by europium cryptate and Alexa 665 reagent based FRET assay
# Assay type: functional, cell-based
# Conditions: Homo sapiens, NHDF
row,Compound,IC50 [nM]
1,Cc1nonc1C(=O)N[C@H](c1cn2ncc([C@H]3C[C@](C)(O)CCN3C(=O)[C@@H]3CCC(F)(F)CO3)nc2n1)C1CCC(F)(F)CC1,5.01
2,Cc1nonc1C(=O)N[C@H](c1cn2ncc([C@@H]3C[C@@](O)(C(F)(F)F)CCN3C(=O)[C@@H]3CCC(F)(F)CO3)nc2n1)C1CCC(F)(F)CC1,2.51
3,Cc1nonc1C(=O)N[C@H](c1cn2ncc([C@@H]3COCCN3C(=O)C3CCC(F)(F)CO3)nc2n1)C(C1CC1)C1CC1 (stereo partly specified),3.98
4,Cc1nonc1C(=O)N[C@H](c1cn2ncc([C@@H]3C[C@](C)(O)CCN3C(=O)[C@@H]3CCC(F)(F)CO3)nc2n1)C1CCC(F)(F)CC1,3.98

# The next lines start with the values.
row,IC50 [nM],Compound
1,6.31,Cc1nonc1C(=O)N[C@H](c1cn2ncc([C@@H]3COCCN3C(=O)[C@@H]3CCC(F)(F)CO3)nc2n1)C1CCC(F)(F)CC1
2,3.98,Cc1nonc1C(=O)N[C@H](c1cn2ncc([C@H]3C[C@H](O)CCN3C(=O)[C@@H]3CCC(F)(F)CO3)nc2n1)C1CCC(F)(F)CC1
